Assay: gradient 5% acetonitrile 3 min, to 50% in 2 min, to 85% in 15 min, held 3 min, 100 µL/min
Settings: column: Zorbax Extend-C18 2.1 x 50 mm; eluents: water / acetonitrile, 0.1% formic acid
Outline: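 Over 3 months, pure standards in mixtures of ~100 molecules were run by HPLC coupled to a quadrupole time-of-flight mass spectrometer in positive and negative ionization mode. The column was a Zorbax Extend-C18 (2.1 × 50 mm, 1.8 μm) at 100 μL/min, eluted with water and acetonitrile each holding 0.1% formic acid, with 40 μL dead and 900 μL dwell volumes. Retention time was determined from adduct peaks chosen by software and checked manually.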

| SMILES | RP-LC retention time |
| --- | --- |
| O=C(CS(=O)Cc1cnn(-c2ccccc2)c1-n1cccc1)NCc1ccccc1 (stereo not drawn) | 797 s |
| Cc1ccccc1NS(=O)(=O)c1cc(-c2cc(C(F)(F)F)on2)sc1C | 1180 s |
| Cc1noc(C)c1C(=O)N1CCCC1Cc1noc(-c2cnccn2)n1 (stereo not drawn) | 661 s |
| O=C(Nc1ccc(-c2nnc3n2CCCC3)cc1)c1ccc2c(c1)OCO2 | 661 s |
| Cc1ccc(C(C)NC(=O)C2CCN(c3ccc4nncn4n3)CC2)cc1 (stereo not drawn) | 736 s |
| Cc1nc(-c2cn(C)c3ncccc23)sc1C(=O)NCc1ccc(C(F)(F)F)cc1 | 981 s |
| Cc1ccc(C(=O)N2CCc3cc(-c4ccno4)ccc32)cc1 | 974 s |
| COc1cccc(-n2c(=O)c(C(=O)Nc3ccc(F)cc3Cl)c(O)c3cccnc32)c1 | 1290 s |
| O=C(Nc1cnc(N2CCCC2)nc1)c1ccccc1 | 676 s |
| COC(=O)c1ccc2c(=O)n(-c3ccc4c(c3)OCO4)c(N3CCN(c4ccccc4)CC3)nc2c1 | 1110 s |
| CCc1noc(-c2nc(-c3ccc(F)c(F)c3)no2)n1 | 1090 s |
| O=C(CSc1ccc(F)cc1)NCC1CCN(Cc2cccs2)CC1 | 566 s |
| Cc1oc(-c2ccccc2)nc1Cn1nnc(C(=O)Nc2cc(F)ccc2F)c1C | 1220 s |
| Cc1ccc(CNC(=O)Cc2nnc(-c3ccc4ncccc4c3)o2)cc1 | 832 s |
| CCOc1ccc2nc(Nc3ncc4c(n3)CC(c3ccccc3)CC4=O)nc(C)c2c1 (stereo not drawn) | 831 s |
| O=C(NC1CCN(c2cc(-c3ccccc3)[nH]n2)C1)c1cccc(F)c1 (stereo not drawn) | 717 s |
| Cc1nc2ccccn2c(=O)c1NC(=O)Nc1cccs1 | 566 s |
| O=C(CCC(=O)N1CCCC1c1nc2ccccc2s1)N1CCc2ccccc21 (stereo not drawn) | 876 s |
| CC(C)N1C(=O)c2cccnc2Sc2cc(NC(=O)c3ccncc3)ccc21 | 662 s |
| Cc1cccn2cc(C(=O)NCc3ccccc3Cl)nc12 | 704 s |
| COc1cccc(-c2nn3c(CSc4ccccc4)nnc3s2)c1 | 993 s |
| CCCCC(=O)Nc1nc(-c2ccc3c(c2)NC(=O)C(C)O3)cs1 (stereo not drawn) | 863 s |
| COc1ccc(N(C)c2nnc(-c3ccc(NC(=O)c4ccco4)cc3)s2)cc1 | 712 s |
| CCOC(=O)c1cnc2nc(C)ccc2c1Nc1cc(Cl)ccc1F | 774 s |
| O=C(NCC(O)c1ccsc1)Nc1cccc(Cl)c1 (stereo not drawn) | 734 s |
| Cc1ccc(-c2ncccc2CNS(=O)(=O)c2cccc(C)c2)cc1 | 726 s |
| COC(=O)c1cnc2nc(C)ccc2c1NCc1ccc2c(c1)OCO2 | 659 s |

| SMILES | RP-LC retention time |
| --- | --- |
| O=C1NC2(CCN(C(=O)c3cccc(F)c3)CC2)Nc2c(Cl)cccc21 | 756 s |
| Cc1cccc(C)c1NC(=O)CSc1cc(N2CCN(c3ccccc3F)CC2)ncn1 | 1100 s |
| COc1cccc(CNC(=O)CN2CCc3[nH]c4c(C)c(Cl)ccc4c(=O)c3C2)c1 | 636 s |
| Fc1ccc(F)c(-c2nc(-c3cccc(-c4ccn[nH]4)c3)no2)c1 | 966 s |
| O=C(Nc1nc2c(Cl)cccc2s1)C1COc2ccccc2O1 (stereo not drawn) | 983 s |
| Cc1oc(-c2cccc(Cl)c2)nc1Cn1nnc(-c2nc(-c3cccnc3)no2)c1C | 1080 s |
| Cc1ccc(CNC(=O)Cn2nc3c(Oc4cc(C)cc(C)c4)nccn3c2=O)cc1 | 943 s |
| COc1cccc(N2CC(C(=O)Nc3nnc(SCc4ccccc4)s3)CC2=O)c1 (stereo not drawn) | 820 s |
| CCOC(=O)c1noc2ncnc(NC3CCN(Cc4ccccc4)CC3)c12 | 616 s |
| Cc1ccc(S(=O)(=O)NCCc2nnc3ccc(NCCCOC(C)C)nn23)cc1 | 657 s |
| CCc1ccccc1NC(=O)c1cc(C)n2nccc2n1 | 1030 s |
| CCCn1cc(-c2ccncc2)cc1C(=O)NCc1ccc(F)cc1 | 680 s |
| CCc1nc2cc(-c3noc(CNC(=O)c4ccccc4)n3)ccc2o1 | 821 s |
| COCCN1C(=O)CCC2(CNC(=O)c3cnc(C)cn3)CCC=C12 (stereo not drawn) | 676 s |
| O=C(Nc1ccc(C(F)(F)F)cc1)c1cnc(-c2ccc(F)cc2)nc1-c1ccncc1 | 1070 s |
| CCOC(=O)c1ccc(NC(=O)N2CCN(c3nc4ccccc4n3C)CC2)cc1 | 658 s |
| Cc1ccccc1OCC(O)CN1CCN(Cc2ccc3c(c2)OCO3)CC1 (stereo not drawn) | 566 s |
| COCCCNC(=O)c1nc(Nc2ccc(C)cc2)c2ccccc2n1 | 709 s |
| Cc1nn(-c2ccc(F)cc2)c2nc(N3CCCC(C(=O)NCc4ccc(F)cc4)C3)sc12 (stereo not drawn) | 1110 s |
| CCCCC(=O)N1C[C@H](c2nc(-c3ccccc3)no2)[C@@H](C)C1 | 971 s |
| COc1ccc(-n2ccn3c(CCC(=O)N4CCN(c5ccccn5)CC4)nnc3c2=O)cc1 | 663 s |
| CNC(=O)c1cc2cccc3c2n1CC(C)S3 (stereo not drawn) | 853 s |
| CCc1nccn1Cc1nc(-c2cccc(OC)c2OC)no1 | 605 s |
| CCOc1ccccc1NC(=O)CSc1ncc(-c2cccc(Br)c2)o1 | 1170 s |
| Cc1cc(C(=O)N2CCN(c3ccc(-c4cccs4)nn3)CC2)no1 | 659 s |
| COCCc1noc([C@@H]2CN(Cc3ccc(C(C)C)cc3)C[C@H]2CO)n1 | 663 s |
| O=C(NCc1ccccc1Cl)c1coc(NC(=O)c2cccs2)n1 | 719 s |

Further lines, results first:

| RP-LC retention time | SMILES |
| --- | --- |
| 968 s | COC(=O)c1ccccc1NC(=O)CC1CCCCN1S(=O)(=O)c1ccccc1 (stereo not drawn) |
| 832 s | Cc1cc(C)cc(C(=O)N2CCCC(C(=O)NCc3cccs3)C2)c1 (stereo not drawn) |
| 822 s | CCN1c2cc(C(=O)NCc3cccs3)ccc2C(=O)N2CCCCC21 (stereo not drawn) |
| 725 s | CC(C)n1c(N2CCN(C(=O)c3ccnn3C)CC2)cc(=O)n(C(C)C)c1=O |
| 559 s | Cc1ccnc(N2CCC(C(=O)NCCCN3CCCCC3)CC2)n1 |
| 896 s | O=C(Oc1cccc([N+](=O)[O-])c1)N1CCCCC1 |
| 626 s | CCCS(=O)(=O)N1CC[C@@H]2COCCN(Cc3ccccc3)[C@@H]2C1 |
| 803 s | CCOC(=O)C1CCCN(C(=O)CCC(=O)N2CCCn3nc(-c4cn(C)c5ccccc45)cc32)C1 (stereo not drawn) |
| 790 s | CCOC(=O)c1c(C)[nH]c(C(=O)N2CCCC(C(=O)NCc3ccc(C)o3)C2)c1C (stereo not drawn) |
| 636 s | CC(C)n1cnc(S(=O)(=O)N2CCC(C(=O)N3CCN(C(=O)c4ccco4)CC3)CC2)c1 |
| 767 s | O=C(NCc1cc(F)cc(F)c1)C1CC(=O)N(c2ccc3c(c2)CCN3C(=O)C2CC2)C1 (stereo not drawn) |
| 1210 s | Cc1nn(-c2nc(-c3ccc(F)cc3)cs2)c(C)c1CC(=O)N1CCCCCC1 |
| 833 s | COc1ccccc1NC(=O)NC1CCN(c2ccc(F)c(C)c2)C1=O (stereo not drawn) |
| 696 s | O=C(NCCc1csc(C2CCCN(C(=O)C3CCCC3)C2)n1)C1CC1 (stereo not drawn) |
| 677 s | O=C(NCc1ccccc1Cl)C1CCN(c2cncnc2N2CCCC2)CC1 |
| 921 s | COc1cccc(NC(=O)C2CCCN(c3nc4ccsc4c(=O)n3-c3cccc(OC)c3)C2)c1 (stereo not drawn) |
| 860 s | Cn1c(=O)sc2cc(S(=O)(=O)N3CCC(C(=O)Nc4cccc(C#N)c4)CC3)ccc21 |

| RP-LC retention time | SMILES |
| --- | --- |
| 758 s | Cn1nccc1C(=O)N1CCCC1c1cccc(F)c1 (stereo not drawn) |
| 1310 s | Cc1ccc(Sc2nccnc2N2CCCC(C(=O)N3CCN(c4cccc(C)c4)CC3)C2)cc1 (stereo not drawn) |
| 612 s | CCc1cc(=O)n(CC(=O)Nc2ccc(C)cc2)c(N2CCOCC2)n1 |
| 834 s | CCS(=O)(=O)N1CC(=O)N(c2cc(C)ccc2C)C(C)(C(=O)NC2CCCC2)C1 (stereo not drawn) |
| 808 s | Cc1cccc(N(C)C(=O)Cn2nc3nc(N4CCCC(C)C4)ccn3c2=O)c1 (stereo not drawn) |
| 876 s | CC(C)n1cnc(S(=O)(=O)N2CCC(C(=O)N3CCN(c4cccc(Cl)c4)CC3)CC2)c1 |
| 648 s | O=C(NCc1ccc(F)cc1)C(=O)NCC(c1ccc2c(c1)OCO2)N1CCOCC1 (stereo not drawn) |
| 681 s | COc1ccc(S(=O)(=O)N2CCCC(C(=O)N3CCOCC3)C2)cc1OC (stereo not drawn) |
| 629 s | COc1ccc(NC(=O)N2CCC(CN3CCCC(C)C3)CC2)cc1Cl (stereo not drawn) |
| 788 s | O=C(C1=CN(c2cccc(Br)c2)c2ccccc2S1(=O)=O)N1CCOCC1 |
| 725 s | COc1ccccc1CNC(=O)C1CCCN(c2nnc(C)c3c(C)n(-c4ccccc4)nc23)C1 (stereo not drawn) |
| 1020 s | COc1cccc(-c2noc(C3CC(=O)N(c4cc(C)cc(C)c4)C3)n2)c1OC (stereo not drawn) |
| 603 s | COc1ccc(N2CC(C(=O)N3CCC(C(=O)NC4CCS(=O)(=O)C4)CC3)CC2=O)cc1 (stereo not drawn) |
| 1010 s | CCn1c(=O)sc2cc(S(=O)(=O)N3CCC(C(=O)Nc4ccc(F)c(Cl)c4)CC3)ccc21 |
| 798 s | COc1ccc2[nH]cc(CCNC(=O)C34CCC=C3N(C3CCCC3)C(=O)CC4)c2c1 (stereo not drawn) |
| 723 s | CN(Cc1ccccc1)C(=O)c1ccc2c(c1)N(CC(=O)N1CCCC1)C(=O)CO2 |
| 610 s | COc1ccc(C2(C(=O)N3CCN(C(=O)c4cc(-c5ccncc5)n[nH]4)CC3)CC2)cc1 |
